Read-outs that look alike come from different tables or passages of the source.
Assays:
[1] = test system: tMCAO in C57BL/6 mice; conditions: 40 mg/kg; 48 h after treatment; earlier report of the group; cited from earlier work
[2] = test system: primary neuronal cultures subjected to OGD; assay: ROS formation in primary neuronal cultures after OGD; type: cell-based, rat; conditions: 2 h recovery after 4 h OGD; significant at 100 μM
Description: Measurement of the ROS formation. To detect the intracellular ROS formation a nonfluorescent and cell permeable reagent was used according to the supplier instructions (Sigma, MAK143). The reagent enters into the cells and reacts with ROS (especially superoxide and hydroxyl radicals) in the cytoplasm, resulting in a fluorometric product proportional to the amount of ROS present. The reagent was added to the cells at the moment that they were subjected to different treatments. After recovery period for 2 h, the fluorescence intensity was at 490 nm λex and 535 nm λem.
Exposure of neuronal cultures to 4 h OGD induced significant ROS generation after 2 h recovery in normoxic and normoglycemic conditions (R2 h) (210%, p<0.005 compared with 100% control) (FIG. 5A). […] ROS generation may induce lipid peroxidation and cell membrane damage. […] The decrease of ROS formation and lipid peroxidation were significant at 100 μM QN 23, in accordance with the concentration at which the QN 23 had the higher neuroprotective activity against experimental ischemia in neuronal cultures (FIG. 4 and Table 1).

[3] = test system: tMCAO in C57BL/6 mice; assay: Infarct size (TTC staining) after tMCAO; type: in vivo; conditions: 2.0 mg/kg; 48 h after tMCAO
Description: Animal model of focal cerebral ischemia. Transient occlusion of a distal branch of the middle cerebral artery (tMCAO) was induced in male C57BL/6 mice (9-12 week old, Charles River) as previously described.^57 The animals were housed in a light/dark cycle (12 hour), humidity and temperature (22±2° C.) controlled environment with food and water available ad libitum. Briefly, mice were anesthetized with 4% isoflurane for induction and 1.5-2% isoflurane for maintenance (in 79% N2/21% O2). After drilling a small hole on the temporal bone, the middle cerebral artery (MCA) was compressed for 60 min with a 30-G needle using a micromanipulator. During the surgery, body temperature was maintained between 37.0±0.5° C. using a homoeothermic blanket and CBF was monitored using laser-Doppler flowmetry to confirm MCA occlusion. […]
Infarct volume evaluation. The size of infarction was evaluated at 48 hours after MCAO using 2,3,5-tetrazolium chloride (TTC) staining.^58 Mice were sacrificed by transcardial perfusion with ice-cold saline under deep anesthesia. […] The infarct areas were measured using the Image-J software and the infarct volume was determined by linear integration of the measured lesion areas and distances over the sections. […]
To examine the efficacy of QN 23 treatment in animals subjected to tMCAO, the infarct size was calculated 48 h after tMCAO model induction. […]

[4] = test system: tMCAO in C57BL/6 mice; assay: Grip strength test after transient middle cerebral artery occlusion (tMCAO); type: in vivo
Description: Animal model of focal cerebral ischemia. Transient occlusion of a distal branch of the middle cerebral artery (tMCAO) was induced in male C57BL/6 mice (9-12 week old, Charles River) as previously described.^57 The animals were housed in a light/dark cycle (12 hour), humidity and temperature (22±2° C.) controlled environment with food and water available ad libitum. Briefly, mice were anesthetized with 4% isoflurane for induction and 1.5-2% isoflurane for maintenance (in 79% N2/21% O2). After drilling a small hole on the temporal bone, the middle cerebral artery (MCA) was compressed for 60 min with a 30-G needle using a micromanipulator. During the surgery, body temperature was maintained between 37.0±0.5° C. using a homoeothermic blanket and CBF was monitored using laser-Doppler flowmetry to confirm MCA occlusion. Buprenorphine (0.05-0.1 mg/kg) was administered subcutaneously immediately before the procedure. A total of 28 mice were subjected to tMCAO according to the design of the study. We performed a power analysis to determine sample size (significance level set at 0.05, the power set at 0.8 (80%)) resulting in 8 animals per experimental group. Surgical inclusion criteria: a reduction in blood flow to <25% of baseline value during ischemia period, and a recovery of 75% of baseline value in the reperfusion period. […] Mice were randomly assigned using a randomization software to the following experimental groups (n=8 per group): vehicle (saline-EtOH 90:10 vol/vol), nitrone 23 (1.5 mg/kg) and nitrone 23 (2.0 mg/kg). The treatments were administered intraperitoneally at the onset of reperfusion period by a blinded investigator. […]
Motor-deficit evaluation, grip strength test. […] A total of 6 trials were conducted for each test and the strength value was calculated as the mean of them.
To assess the neuroprotective effect of QN 23 on experimental ischemic stroke, we induced a transient middle cerebral artery occlusion (tMCAO) and evaluated the motor deficits by grip strength test at 24 h and 48 h after the administration of QN 23. […]

[5] = test system: primary neuronal cultures subjected to OGD; assay: Lipid peroxidation (MDA) in primary neuronal cultures after OGD; type: cell-based, rat; conditions: 4 h recovery after 4 h OGD; significant at 100 μM
Description: Lipid peroxidation. Lipid peroxidation was evaluated by the detection of end products such as malondialdehyde (MDA) as a result of oxidative attack to polyunsaturated lipids. Lipid peroxidation was determined by the reaction of MDA with thiobarbituric acid (TBA) to form a colorimetric/fluorometric product, proportional to the MDA present. After recovery period for 4 h, cells (1.5×10^6) were lysed and centrifuged according to the supplier instructions (Sigma, MAK085), and then the thiobarbituric acid was added to the supernatant and mixed in a vortex. The samples were incubated at 95° C. for 60 min, cooled to room temperature and then n-butanol and 5M NaCl were added in a reaction mixture 8:3:1 (v/v) sample:n-butanol:NaCl. After mixed in a vortex, the samples were centrifuged, the n-butanol layer was taken and evaporated, the MDA-TBA adducts were dissolve in water and the absorbance was measured at 540 nm.
Exposure of neuronal cultures to 4 h OGD induced significant ROS generation after 2 h recovery in normoxic and normoglycemic conditions (R2 h) (210%, p<0.005 compared with 100% control) (FIG. 5A). […] ROS generation may induce lipid peroxidation and cell membrane damage. […]

CC(C)(C)/[N+]([O-])=C/c1ccc(S(=O)(=O)O)cc1S(=O)(=O)O [Compound 2, sodium (Z)-4-((tert-butyloxidoazanylidene)methyl)benzene-1,3-disulfonate, reference compound]
improvement of grip strength [1]: 11.8%

COc1ccc2nc(Cl)c(/C=[N+](\[O-])C(C)(C)C)cc2c1 [Compound 23, (Z)—N-tert-Butyl-1-(2-chloro-6-methoxyquinolin-3-yl)methanimine oxide]
ROS formation [2]: significantly decreased to the control value | size of the ischemic lesion (in words) [3]: significantly lower than in vehicle treated animals | motor deficit compared with vehicle (in words) ([4]; 1.5 mg/kg and 2.0 mg/kg, 48 h after treatment): significant decrease of motor deficit | grip strength compared with vehicle (in words) ([4]; 2.0 mg/kg, 24 h after treatment): improvement in the grip strength which was significant | improvement of grip strength ([4]; 48 h after treatment): 20.7% | lipid peroxidation [5]: significantly decreased compared to R4 h value

Reference: patent US12102631B2, “Quinolylnitrones for the treatment and prevention of a cerebral stroke or ischaemia” (ISQUAEMIA BIOTECH, S.L., priority 2018, dated 2024)
